EC50 data for 22 molecules are collected here from US20240246964A1 (Arbutus Biopharma Corporation, priority 2021, published 2024).

The EC50 is the midpoint of the concentration-response curve. A low value points to higher potency in that assay.

Where only a bound is given, the exact number is not on record here.

Sequence of human PD-L1 (Q9NZQ7 19-290): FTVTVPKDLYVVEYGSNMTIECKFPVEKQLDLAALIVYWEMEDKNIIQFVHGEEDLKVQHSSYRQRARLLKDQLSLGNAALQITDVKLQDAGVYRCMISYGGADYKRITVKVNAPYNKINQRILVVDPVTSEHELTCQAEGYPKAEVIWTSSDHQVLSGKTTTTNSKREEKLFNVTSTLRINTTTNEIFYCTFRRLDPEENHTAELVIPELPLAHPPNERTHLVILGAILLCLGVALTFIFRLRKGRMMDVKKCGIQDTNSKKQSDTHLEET

This test has as its target human PD-L1 (Homo sapiens (Human), UniProt Q9NZQ7). Description: T cell activation luciferase reporter cell culture system (T Cell Activation Assay). The following applies: luciferase reporter assay; PD-L1 aAPC/CHO-K1 cells with PD-1 effector Jurkat T cells. It counts as cell-based. Background: In a reporter assay the amount or activity of a reporter protein is the signal.
Take `COc1cc(-c2nccc(-c3cccc(-c4ccc(CNC[C@@H]5CCC(=O)N5)c(OC)n4)c3Cl)c2Cl)cc(F)c1CN[C@H]1C[C@](C)(O)C1` [Cmpd 79]: the concentration giving a half-maximal response (EC50) came out at 50.6 nM. Consider `COc1nc(-c2cccc(-c3ccnc(-c4cc(Cl)c5c(c4)CCN(C[C@H](C)O)C5)c3Cl)c2Cl)ccc1CNC[C@@H]1CCC(=O)N1` [Cmpd 69, (S)-5-((((6-(2-chloro-3-(3-chloro-2-(8-chloro-2-((S)-2-hydroxypropyl)-1,2,3,4-tetrahydroisoquinolin-6-yl)pyridin-4-yl)phenyl)-2-methoxypyridin-3-yl)methyl)amino)methyl)pyrrolidin-2-one], for which it took 56.6 nM to reach a half-maximal effect (EC50). In the case of `COc1cc(-c2nccc(-c3cccc(-c4ccc(CNC5CCN(C(C)=O)CC5)c(OC)n4)c3Cl)c2Cl)ccc1CNC1CCN(C(=O)C(C)C)CC1` [Example 371, 1-(4-((4-(4-(3-(5-(((1-acetylpiperidin-4-yl)amino)methyl)-6-methoxypyridin-2-yl)-2-chlorophenyl)-3-chloropyridin-2-yl)-2-methoxybenzyl)amino)piperidin-1-yl)-2-methylpropan-1-one] it was 48.7 nM.

As for `COc1cc(-c2nccc(-c3cccc(-c4ccc(CNC5CCSCC5)c(OC)n4)c3Cl)c2Cl)ccc1CNC1CCSCC1` [Example 484, N-((6-(2-Chloro-3-(3-chloro-2-(3-methoxy-4-(((tetrahydro-2H-thiopyran-4-yl)amino)methyl)phenyl)pyridin-4-yl)phenyl)-2-methoxypyridin-3-yl)methyl)tetrahydro-2H-thiopyran-4-amine], the response was half-maximal at 195 nM (EC50). For `COc1cc(-c2nccc(-c3cccc(-c4ccc(CNC5CCOCC5)c(OC)n4)c3Cl)c2Cl)ccc1CN1CC2(CNC(=O)C2)C1` [Example 506, 2-(4-(3-Chloro-4-(2-chloro-3-(6-methoxy-5-(((tetrahydro-2H-pyran-4-yl)amino)methyl)pyridin-2-yl)phenyl)pyridin-2-yl)-2-methoxybenzyl)-2,6-diazaspiro[3.4]octan-7-one] the value was 25 nM; for `COc1cc(-c2ncnc(-c3cccc(-c4ccc(CNC5CCOCC5)c(OC)n4)c3Cl)c2OC)ccc1CNC1CCOCC1` [Example 734, N-((6-(2-Chloro-3-(5-methoxy-6-(3-methoxy-4-(((tetrahydro-2H-pyran-4-yl)amino)methyl)phenyl)pyrimidin-4-yl)phenyl)-2-methoxypyridin-3-yl)methyl)tetrahydro-2H-pyran-4-amine], no less than 10000 nM; for `COc1cc(-c2ncnc(-c3cccc(-c4ccc(CN[C@H]5C[C@@H](O)C5)c(OC)n4)c3Cl)c2Cl)ccc1CN1CC2(CNC(=O)C2)C1` [Example 737, 2-(4-(5-Chloro-6-(2-chloro-3-(5-((((1s,3s)-3-hydroxycyclobutyl)amino)methyl)-6-methoxypyridin-2-yl)phenyl)pyrimidin-4-yl)-2-methoxybenzyl)-2,6-diazaspiro[3.4]octan-7-one], 109 nM. For `COc1cc(-c2nccc(-c3cccc(-c4ccc(CNC5CCN(C(C)=O)CC5)c(OC)n4)c3Cl)c2Cl)ccc1CN1CC2(CNC(=O)C2)C1` [Example 244, 2-(4-(4-(3-(5-(((1-acetylpiperidin-4-yl)amino)methyl)-6-methoxypyridin-2-yl)-2-chlorophenyl)-3-chloropyridin-2-yl)-2-methoxybenzyl)-2,6-diazaspiro[3.4]octan-7-one] the value was 25.2 nM; for `COCCC(=O)N1CCC(NCc2ccc(-c3cccc(-c4ccnc(-c5ccc(CN6CCC(O)CC6)c(OC)c5)c4Cl)c3Cl)nc2OC)CC1` [Example 616, 1-(4-(((6-(2-Chloro-3-(3-chloro-2-(4-((4-hydroxypiperidin-1-yl)methyl)-3-methoxyphenyl)pyridin-4-yl)phenyl)-2-methoxypyridin-3-yl)methyl)amino)piperidin-1-yl)-3-methoxypropan-1-one], 36 nM. For `COc1cc(-c2nccc(-c3cccc(-c4ccc(CNC5CCN(C(C)=O)CC5)c(OC)n4)c3Cl)c2Cl)ccc1CN1CC[C@H](C(=O)OC(C)C)C1` [Example 245, Isopropyl (S)-1-(4-(4-(3-(5-(((1-acetylpiperidin-4-yl)amino)methyl)-6-methoxypyridin-2-yl)-2-chlorophenyl)-3-chloropyridin-2-yl)-2-methoxybenzyl)pyrrolidine-3-carboxylate] the value was 187 nM; for `COc1cc(-c2nccc(-c3cccc(-c4ccc(CN5CCOCC5)c(OC)n4)c3Cl)c2Cl)ccc1CN1CCOCC1` [Example 411, 4-((6-(2-Chloro-3-(3-chloro-2-(3-methoxy-4-(morpholinomethyl)phenyl)pyridin-4-yl)phenyl)-2-methoxypyridin-3-yl)methyl)morpholine], no less than 10000 nM; for `COc1nc(-c2cccc(-c3ccnc(-c4ccc5c(c4)S(=O)(=O)CCN(C[C@H](C)O)C5)c3Cl)c2Cl)ccc1CNC[C@@H]1CCC(=O)N1` [Example 611, (S)-5-((((6-(2-Chloro-3-(3-chloro-2-(4-((S)-2-hydroxypropyl)-1,1-dioxido-2,3,4,5-tetrahydrobenzo[f][1,4]thiazepin-8-yl)pyridin-4-yl)phenyl)-2-methoxypyridin-3-yl)methyl)amino)methyl)pyrrolidin-2-one], no less than 10000 nM. Molecule `COc1cc(-c2nccc(-c3cccc(-c4ccc(CN5CC6(C5)CN(C(C)=O)C6)c(OC)n4)c3Cl)c2C)ccc1CN1CC2(C1)CN(C(C)=O)C2` [Example 369, 1-(6-((6-(3-(2-(4-((6-Acetyl-2,6-diazaspiro[3.3]heptan-2-yl)methyl)-3-methoxyphenyl)-3-methylpyridin-4-yl)-2-chlorophenyl)-2-methoxypyridin-3-yl)methyl)-2,6-diazaspiro[3.3]heptan-2-yl)ethan-1-one] displayed an EC50 of 369 nM. Turning to `COc1cc(-c2nccc(-c3cccc(-c4ccc(CNC5CCN(C(C)=O)CC5)c(OC)n4)c3C)c2C)ccc1CNC1CCN(C(C)=O)CC1` [Example 363, 1-(4-(((6-(3-(2-(4-(((1-Acetylpiperidin-4-yl)amino)methyl)-3-methoxyphenyl)-3-methylpyridin-4-yl)-2-methylphenyl)-2-methoxypyridin-3-yl)methyl)amino)piperidin-1-yl)ethan-1-one], the midpoint of the response, the EC50, lay at 400 nM.

Regarding `COc1cc(-c2nccc(-c3cccc(-c4ccc(CNC5CCN(C(C)=O)CC5)c(OC)n4)c3Cl)c2Cl)ccc1CNC1CCOCC1` [Example 392, 1-(4-(((6-(2-chloro-3-(3-chloro-2-(3-methoxy-4-(((tetrahydro-2H-pyran-4-yl)amino)methyl)phenyl)pyridin-4-yl)phenyl)-2-methoxypyridin-3-yl)methyl)amino)piperidin-1-yl)ethan-1-one], the half-maximal effective concentration (EC50) is 17.6 nM. For `COc1cc(-c2nccc(-c3cccc(-c4ccc(CNC[C@@H]5CCC(=O)N5)c(OC)n4)c3Cl)c2Cl)cc2c1CN(C[C@@H](C)O)CC2` [Cmpd 27, (S)-5-((((6-(2-chloro-3-(3-chloro-2-(2-((R)-2-hydroxypropyl)-8-methoxy-1,2,3,4-tetrahydroisoquinolin-6-yl)pyridin-4-yl)phenyl)-2-methoxypyridin-3-yl)methyl)amino)methyl)pyrrolidin-2-one], the EC50 worked out at 25.1 nM. The molecule `COc1cc(-c2nccc(-c3cccc(-c4ccc(CN5CC6(CNC(=O)C6)C5)c(OC)n4)c3F)c2F)ccc1CN1CC2(CNC(=O)C2)C1` [Example 451, 2-(4-(3-Fluoro-4-(2-fluoro-3-(6-methoxy-5-((7-oxo-2,6-diazaspiro[3.4]octan-2-yl)methyl)pyridin-2-yl)phenyl)pyridin-2-yl)-2-methoxybenzyl)-2,6-diazaspiro[3.4]octan-7-one] yielded a concentration for a half-maximal effect (EC50) of 1970 nM.

`COc1nc(-c2cccc(-c3ccnc(-c4cc5c(=O)n(C)c(CN6CC(C)(O)C6)nn5c4)c3Cl)c2Cl)ccc1CN[C@H]1C[C@](C)(O)C1` [Example 232, 6-(3-Chloro-4-(2-chloro-3-(5-((((1r,3r)-3-hydroxy-3-methylcyclobutyl)amino)methyl)-6-methoxypyridin-2-yl)phenyl)pyridin-2-yl)-2-((3-hydroxy-3-methylazetidin-1-yl)methyl)-3-methylpyrrolo[2,1-f][1,2,4]triazin-4(3H)-one]: the EC50 is 102 nM. `COc1nc(-c2cccc(-c3ccnc(-c4ccc5c(c4)CCC[C@H]5NC[C@@H]4CCC(=O)N4)c3Cl)c2Cl)ccc1CN1CC2(CNC(=O)C2)C1` [Example 255, 2-((6-(2-chloro-3-(3-chloro-2-((R)-5-((((S)-5-oxopyrrolidin-2-yl)-methyl)-amino)-5,6,7,8-tetrahydronaphthalen-2-yl)pyridin-4-yl)phenyl)-2-methoxypyridin-3-yl)methyl)-2,6-diazaspiro[3.4]octan-7-one] displayed an EC50 of 305 nM.

Regarding `COc1nc(-c2ccnc(-c3cccc(NC(=O)c4cn(C)c(=O)n(C)c4=O)c3Cl)c2Cl)ccc1CNC[C@@H]1CCC(=O)N1` [Compound 718, (S)—N-(2-Chloro-3-(3′-chloro-6-methoxy-5-((((5-oxopyrrolidin-2-yl)methyl)amino)methyl)-[2,4′-bipyridin]-2′-yl)phenyl)-1,3-dimethyl-2,4-dioxo-1,2,3,4-tetrahydropyrimidine-5-carboxamide], the EC50 stood at 81.5 nM. As for `COc1cc(-c2nccc(-c3cccc(-c4ccc(CN5CC6(CNC(=O)C6)C5)c(OC)n4)c3Cl)c2Cl)ccc1CN[C@H]1C[C@](C)(O)C1` [Example 496, 2-((6-(2-Chloro-3-(3-chloro-2-(4-((((1r,3r)-3-hydroxy-3-methylcyclobutyl)amino)methyl)-3-methoxyphenyl)pyridin-4-yl)phenyl)-2-methoxypyridin-3-yl)methyl)-2,6-diazaspiro[3.4]octan-7-one], a half-maximal response (EC50) required 29.1 nM. For `COc1cc(-c2nccc(-c3cccc(-c4ccc(CN(C)C5CCN(C(C)=O)CC5)c(OC)n4)c3Cl)c2Cl)ccc1CN(C)C1CCN(C(C)=O)CC1` [Cmpd 140, 1-(4-(((6-(3-(2-(4-(((1-acetylpiperidin-4-yl)(methyl)amino)methyl)-3-methoxyphenyl)-3-chloropyridin-4-yl)-2-chlorophenyl)-2-methoxypyridin-3-yl)methyl)(methyl)amino)piperidin-1-yl)ethan-1-one] the value was no less than 10000 nM.
